# Measured values published in patent publication US20240189276A1, “COMPOSITIONS COMPRISING LACTATE DEHYDROGENASE-A INHIBITORS AND METHODS OF PRODUCTION AND USE THEREOF” (Southwestern Oklahoma State University, priority 2022, published 2024).
# Tests used:
# [1] = system: human pancreatic and lymphoma cancer xenografts; settings: literature; cited from earlier work
# [2] = system: HeLa human cervical carcinoma cells; settings: literature; normoxic conditions stated for NHI-2; cited from earlier work
# cells = settings: literature; cited from earlier work
# LDHA = LDHA (Homo sapiens, UniProt P00338); settings: literature; cited from earlier work
# PANC-1 cells = assay: Cytotoxicity (viability/proliferation/necrosis) assay, PANC-1; format: cell-based; settings: Homo sapiens; PANC-1, 48 hr, normoxic; read-out: Cytotoxicity IC50 ± SD, PANC-1
# Protocol: (§1) Cytotoxicity study: Anticancer potency was investigated using a fluorescence-based high throughput confocal microscopy cell viability/proliferation/cell death assay. […] Selected compounds were also tested in the FC1199 pancreatic cancer line from the KPC-1 genetically engineered mouse model. Compounds were also tested in hTERT immortalized normal pancreatic (HPNE) cell lines to rule out nonspecific cytotoxicity of compounds.
# (§2) Cell lines. The human PANC-1, MiaPaCa-2, and HPNE cell lines were obtained from American Type Culture Collection (ATCC, Manassas, VA, USA). Mouse pancreatic cancer FC1199 cells were obtained from the KPC-1 genetically engineered mouse model that has mutated K-Ras, metastasizes to the liver, and forms desmoplasia.
# (§3) Cytotoxicity assay. Cytotoxicity was assessed using the viability/proliferation/necrosis assay. […] Confocal images were acquired using the Operetta High Content Imaging System (PerkinElmer). […] SYTOX Green will be detected using an excitation wavelength of 500-520 nm and an emission wavelength of 520-530 nm. Brightfield images will also be acquired for each field. […] Cell counts were summed over the five fields for each well, and the percentage of viable cells was calculated relative to the untreated control.
# [3] = system: FC1199 pancreatic cancer cells; assay: Cytotoxicity (viability/proliferation/necrosis) assay, FC1199; format: cell-based; settings: Mus musculus, Pancreatic cancer cell; FC-1199, 48 hr; read-out: Cytotoxicity IC50 ± SD, FC-1199
# Protocol: as §1, §2, §3
# [4] = Cytotoxicity assay in hTERT immortalized normal pancreatic cells; format: cell-based; settings: human, HPNE cells (hTERT immortalized normal pancreatic cells), read-out: Cytotoxicity IC50 ± SD, HPNE Normal
# Protocol: as §1, §2, §3
# PANC-1 = settings: literature, normoxic conditions; read-out: viability IC50 in PANC-1; cited from earlier work
# PDAC cells = settings: literature; cited from earlier work
# [5] = literature; cited from earlier work
# Snu398 cells = settings: literature; read-out: cell viability EC50 in Snu398 cells; cited from earlier work
# cancer cell growth = settings: literature, hypoxic conditions; read-out: IC50, inhibition of cancer cell growth; cited from earlier work
# MIA PaCa-2 = settings: literature; read-out: cell viability IC50 in MIA PaCa-2; cited from earlier work
# hLDH5 (LDHA) = hLDH5 (LDHA) (Homo sapiens, UniProt P00338); assay: Biochemical LDHA (hLDH5) inhibition assay, NADH fluorescence; settings: read-out: LDHA inhibition IC50 ± SD
# Protocol: Biochemical LDHA inhibition assay: The hLDH5 (LDHA) enzymatic activity was measured by fluorescence (excitation@ 340 nm, emission@ 460 nm) to monitor the rate of conversion of NADH to NAD+at 37° C.
# The hLDH5 (LDHA) inhibition assay was performed by measuring the fluorescence (excitation@ 340 nm, emission@ 460 nm) and monitoring the rate of conversion of NADH to NAD+at 37° C. as reported. […] The stock solution of compounds was prepared in DMSO. […] The experiment involved adding a solution of compounds in DMSO to the enzyme and NADH in a phosphate buffer. The assay plate was incubated at 25° C. for 10 minutes, and a baseline read was taken, after which pyruvate was added. The fluorescence was read for 5 minutes every 30 seconds in a microplate reader. The slope of a suitable linear timeframe was calculated with the curve bottom assigned to the initial 5-second recording before adding pyruvate (background rate) and the curve top to the negative (DMSO only) control wells rate. IC50 values were determined from dose-response curves using four-parameter logistic non-linear regression analysis in Prism Software v9.0. The assays were performed in triplicates and the data is presented as mean±SD (n=3).
Molecule,IC50 (PANC-1 cells) [µM],IC50 [3] [µM],IC50 at 48 hr [4] [µM],also measured
CCCc1c(O)c(O)c(C(=O)O)c2cc(Cc3ccccc3)c(C)cc12 [FX-11],–,–,–,progression of cancer xenografts [1]: inhibit the progression of human pancreatic and lymphoma cancer xenografts; IC50 [2]: 23.3 µM
Cc1nc2ccc(NC(=O)CCNC(=O)CCCc3ccc(CC(C(=O)O)C(=O)O)cc3)cc2s1 [AZ33],–,–,–,cellular activity (cells): inactive in cells; IC50 (LDHA): 0.5 µM
COC(=O)C(CC(=O)Nc1ccc(C(=O)c2nccn2C)cc1)c1ccc(C(F)(F)F)cc1 (centres unmarked) [Compound 4],23.9 ± 1.8,12.1 ± 1.2,49.5 ± 7.3,–
COC(=O)c1cc2c(C(F)(F)F)cc(-c3ccccc3)cc2n1O [NHI-2],–,–,–,"IC50 [2]: 33.4 µM; IC50 (PANC-1): 22.2 µM; apoptosis and gemcitabine synergy (PDAC cells): induced apoptosis, and synergistically enhanced gemcitabine activity in PDAC cells"
COc1ncc(-c2ccc3c(Nc4cc(Oc5cc(F)cc(F)c5)cc(C(=O)O)c4)c(S(=O)(=O)NC4CC4)cnc3c2)c(OC)n1 [GSK2837808A],–,–,–,pharmacokinetics / clearance in vivo [5]: poor pharmacokinetics in vivo; EC50 (Snu398 cells): 2.9 µM; IC50 (cancer cell growth): 2.97 µM
O=C(CC(C(=O)O)c1ccc(C(F)(F)F)cc1)Nc1ccc(C(=O)N2CCc3ccccc32)cc1 (centres unmarked) [Compound 19],43.1 ± 4.87,56.5,> 50,–
COC(=O)C(CC(=O)Nc1ccc(C(=O)N2CCc3ccccc32)cc1)c1ccc(C(F)(F)F)cc1 (centres unmarked) [Compound 17],24.2 ± 1.08,73.4 ± 6.8,50.7 ± 3.6,–
GNE-140,–,–,–,pharmacokinetics / clearance in vivo [5]: high clearance; IC50 (MIA PaCa-2): 2.05 µM; IC50 (cancer cell growth): 2 µM
Cn1ccnc1C(=O)c1ccc(NC(=O)CC(C(=O)O)c2ccc(C(F)(F)F)cc2)cc1 (centres unmarked) [Compound 5],43.3 ± 3.98,20.8 ± 2.97,> 50,–
COC(=O)C(CC(=O)Nc1ccc(F)cn1)c1ccc(C(F)(F)F)cc1 (centres unmarked) [Compound 23],22.3 ± 2,13.3 ± 0.9,> 50,IC50 (hLDH5 (LDHA)): 5.58 ± 1.05 µM
